Experimental data as given in patent publication US20160367623A1, “AGONISTS OF GUANYLATE CYCLASE USEFUL FOR THE TREATMENT OF GASTROINTESTINAL DISORDERS, INFLAMMATION, CANCER AND OTHER DISORDERS” (priority 2015, published 2016).
Bridge positions count the residues as written; N and C are the ends. Ends that are not written are not given here.

Tested on: patients with chronic idiopathic constipation (CIC)
Experiment: Second phase 3 CIC trial: CSBM weekly responders by week
Type: in vivo, human
Settings: MRA
Excerpt: Both trials include a two-week pre-treatment baseline period, a 12-week treatment period, and a two-week post-treatment period. The phase 3 CIC program was designed to support regulatory submission in the U. S.
The primary endpoint for both trials is the proportion of durable overall responders (%), which is the current regulatory endpoint required for U.S. approval in CIC. The FDA has defined a durable overall responder as a patient who fulfills both ≧3 complete spontaneous bowel movements (CSBMs) per week plus an increase of ≧1 CSBM from baseline in the same week, for 9 out of the 12 treatment weeks. In addition, the same patient must be an overall responder for at least 3 of the last 4 treatment weeks in order to be considered a durable overall responder.
Patients were selected using Rome 3 criteria modified for CIC and had (1) fewer than 3 defecations per week, (2) loose stools occurring rarely without laxatives, (3) inadequate criteria for irritable bowel syndrome with constipation (IBS-C), and (4) at least two of the following applied to at least 25% of defecations: (a) straining during evacuation, (b) lumpy or hard stools, (c) sensation of anorectal obstruction or blockage. Rome 3 requires patients to fulfill the criteria for the last 3 months with symptom onset at least 6 months prior to diagnosis.

[1] = Post-Treatment Week 13, 3 mg, All Randomized (includes Duplicate Patients)
[2] = Post-Treatment Week 13, 3 mg, ITT Population
[3] = Post-Treatment Week 13, 3 mg, ITT Population-Excluding Duplicate Patients
[4] = Post-Treatment Week 13, 6 mg, All Randomized (includes Duplicate Patients)
[5] = Post-Treatment Week 13, 6 mg, ITT Population
[6] = Post-Treatment Week 13, 6 mg, ITT Population-Excluding Duplicate Patients
[7] = Post-Treatment Week 13, Active Combined, All Randomized (includes Duplicate Patients)
[8] = Post-Treatment Week 13, Active Combined, ITT Population-Excluding Duplicate Patients
[9] = Post-Treatment Week 13, Active Combined, ITT Population
[10] = Post-Treatment Week 14, 3 mg, All Randomized (includes Duplicate Patients)
[11] = Post-Treatment Week 14, 3 mg, ITT Population
[12] = Post-Treatment Week 14, 3 mg, ITT Population-Excluding Duplicate Patients
[13] = Post-Treatment Week 14, 6 mg, ITT Population
[14] = Post-Treatment Week 14, 6 mg, ITT Population-Excluding Duplicate Patients
[15] = Post-Treatment Week 14, Active Combined, ITT Population-Excluding Duplicate Patients
[16] = Post-Treatment Week 14, Active Combined, ITT Population
[17] = Week 1, 3 mg, ITT Population-Excluding Duplicate Patients
[18] = Week 1, 6 mg, ITT Population-Excluding Duplicate Patients
[19] = Week 1, Active Combined, ITT Population-Excluding Duplicate Patients
[20] = Week 1, Active Combined, ITT Population
[21] = Week 2, 3 mg, ITT Population-Excluding Duplicate Patients

Substance: Asn^1-Asp^2-Glu^3-Cys^4-Glu^5-Leu^6-Cys^7-Val^8-Asn^9-Val^10-Ala^11-Cys^12-Thr^13-Gly^14-Cys^15-Leu^16 (NDECELCVNVACTGCL; disulfide 4-12, 7-15) [Plecanatide, uroguanylin analogue, guanylate cyclase-C agonist; (C4:C12, C7:C15) bicycle peptide]
- Difference in Proportions (adjusted) (Post-Treatment Week 13, 3 mg minus placebo, All Randomized (includes Duplicate Patients)): 0.042
- Odds Ratio (adjusted) (Post-Treatment Week 13, 3 mg vs placebo, All Randomized (includes Duplicate Patients)): 0.796
- CSBM Weekly Responders, n (%) [1]: 125 (26.6) n (%)
- Non-Responders, n (%) [1]: 345 (73.4) n (%)
- CSBM Weekly Responders, n (%) [2]: 121 (27.3) n (%)
- Non-Responders, n (%) [2]: 322 (72.7) n (%)
- CSBM Weekly Responders, n (%) [3]: 119 (27.4) n (%)
- Non-Responders, n (%) [3]: 315 (72.6) n (%)
- Difference in Proportions (adjusted) (Post-Treatment Week 13, 6 mg minus placebo, All Randomized (includes Duplicate Patients)): 0.003
- Odds Ratio (adjusted) (Post-Treatment Week 13, 6 mg vs placebo, All Randomized (includes Duplicate Patients)): 0.981
- CSBM Weekly Responders, n (%) [4]: 107 (22.7) n (%)
- Non-Responders, n (%) [4]: 364 (77.3) n (%)
- CSBM Weekly Responders, n (%) [5]: 106 (23.6) n (%)
- Non-Responders, n (%) [5]: 343 (76.4) n (%)
- CSBM Weekly Responders, n (%) [6]: 105 (23.7) n (%)
- Non-Responders, n (%) [6]: 338 (76.3) n (%)
- CSBM Weekly Responders, n (%) [7]: 232 (24.7) n (%)
- Non-Responders, n (%) [7]: 709 (75.3) n (%)
- Difference in Proportions (adjusted) (Post-Treatment Week 13, 3 mg minus placebo, ITT Population-Excluding Duplicate Patients): 0.045
- Difference in Proportions (adjusted) (Post-Treatment Week 13, 3 mg minus placebo, ITT Population): 0.044
- Odds Ratio (adjusted) (Post-Treatment Week 13, 3 mg vs placebo, ITT Population-Excluding Duplicate Patients): 0.786
- Odds Ratio (adjusted) (Post-Treatment Week 13, 3 mg vs placebo, ITT Population): 0.792
- Difference in Proportions (adjusted) (Post-Treatment Week 13, 6 mg minus placebo, ITT Population-Excluding Duplicate Patients): 0.008
- Difference in Proportions (adjusted) (Post-Treatment Week 13, 6 mg minus placebo, ITT Population): 0.007
- Odds Ratio (adjusted) (Post-Treatment Week 13, 6 mg vs placebo, ITT Population-Excluding Duplicate Patients): 0.954
- Odds Ratio (adjusted) (Post-Treatment Week 13, 6 mg vs placebo, ITT Population): 0.962
- CSBM Weekly Responders, n (%) [8]: 224 (25.5) n (%)
- Non-Responders, n (%) [8]: 653 (74.5) n (%)
- CSBM Weekly Responders, n (%) [9]: 227 (25.4) n (%)
- Non-Responders, n (%) [9]: 665 (74.6) n (%)
- Difference in Proportions (adjusted) (Post-Treatment Week 14, 3 mg minus placebo, All Randomized (includes Duplicate Patients)): 0.019
- Odds Ratio (adjusted) (Post-Treatment Week 14, 3 mg vs placebo, All Randomized (includes Duplicate Patients)): 0.886
- CSBM Weekly Responders, n (%) [10]: 95 (20.2) n (%)
- Non-Responders, n (%) [10]: 375 (79.8) n (%)
- CSBM Weekly Responders, n (%) [11]: 94 (21.2) n (%)
- Non-Responders, n (%) [11]: 349 (78.8) n (%)
- CSBM Weekly Responders, n (%) [12]: 93 (21.4) n (%)
- Non-Responders, n (%) [12]: 341 (78.6) n (%)
- Difference in Proportions (adjusted) (Post-Treatment Week 14, 6 mg minus placebo, All Randomized (includes Duplicate Patients)): −0.003
- Odds Ratio (adjusted) (Post-Treatment Week 14, 6 mg vs placebo, All Randomized (includes Duplicate Patients)): 1.020
- CSBM Weekly Responders, n (%) (Post-Treatment Week 14, 6 mg, All Randomized (includes Duplicate Patients)): 85 (18.0) n (%)
- CSBM Weekly Responders, n (%) [13]: 83 (18.5) n (%)
- Non-Responders, n (%) [13]: 366 (81.5) n (%)
- CSBM Weekly Responders, n (%) [14]: 82 (18.5) n (%)
- Non-Responders, n (%) [14]: 361 (81.5) n (%)
- CSBM Weekly Responders, n (%) (Post-Treatment Week 14, Active Combined, All Randomized (includes Duplicate Patients)): 180 (19.1) n (%)
- Difference in Proportions (adjusted) (Post-Treatment Week 14, 3 mg minus placebo, ITT Population-Excluding Duplicate Patients): 0.024
- Difference in Proportions (adjusted) (Post-Treatment Week 14, 3 mg minus placebo, ITT Population): 0.026
- Odds Ratio (adjusted) (Post-Treatment Week 14, 3 mg vs placebo, ITT Population-Excluding Duplicate Patients): 0.860
- Odds Ratio (adjusted) (Post-Treatment Week 14, 3 mg vs placebo, ITT Population): 0.852
- Difference in Proportions (adjusted) (Post-Treatment Week 14, 6 mg minus placebo, ITT Population-Excluding Duplicate Patients): −0.005
- Difference in Proportions (adjusted) (Post-Treatment Week 14, 6 mg minus placebo, ITT Population): −0.002
- Odds Ratio (adjusted) (Post-Treatment Week 14, 6 mg vs placebo, ITT Population-Excluding Duplicate Patients): 1.032
- Odds Ratio (adjusted) (Post-Treatment Week 14, 6 mg vs placebo, ITT Population): 1.011
- CSBM Weekly Responders, n (%) [15]: 175 (20.0) n (%)
- Non-Responders, n (%) [15]: 702 (80.0) n (%)
- CSBM Weekly Responders, n (%) [16]: 177 (19.8) n (%)
- Non-Responders, n (%) [16]: 715 (80.2) n (%)
- Difference in Proportions (adjusted) (Week 1, 3 mg minus placebo, All Randomized (includes Duplicate Patients)): 0.123
- Odds Ratio (adjusted) (Week 1, 3 mg vs placebo, All Randomized (includes Duplicate Patients)): 0.468
- Non-Responders, n (%) (Week 1, 3 mg, All Randomized (includes Duplicate Patients)): 342 (72.8) n (%)
- CSBM Weekly Responders, n (%) (Week 1, 3 mg, ITT Population): 121 (27.3) n (%)
- Non-Responders, n (%) (Week 1, 3 mg, ITT Population): 322 (72.7) n (%)
- CSBM Weekly Responders, n (%) [17]: 121 (27.9) n (%)
- Non-Responders, n (%) [17]: 313 (72.1) n (%)
- Difference in Proportions (adjusted) (Week 1, 6 mg minus placebo, All Randomized (includes Duplicate Patients)): 0.106
- Odds Ratio (adjusted) (Week 1, 6 mg vs placebo, All Randomized (includes Duplicate Patients)): 0.513
- Non-Responders, n (%) (Week 1, 6 mg, All Randomized (includes Duplicate Patients)): 351 (74.5) n (%)
- CSBM Weekly Responders, n (%) (Week 1, 6 mg, ITT Population): 114 (25.4) n (%)
- Non-Responders, n (%) (Week 1, 6 mg, ITT Population): 335 (74.6) n (%)
- CSBM Weekly Responders, n (%) [18]: 114 (25.7) n (%)
- Non-Responders, n (%) [18]: 329 (74.3) n (%)
- Non-Responders, n (%) (Week 1, Active Combined, All Randomized (includes Duplicate Patients)): 693 (73.6) n (%)
- Difference in Proportions (adjusted) (Week 1, 3 mg minus placebo, ITT Population-Excluding Duplicate Patients): 0.123
- Difference in Proportions (adjusted) (Week 1, 3 mg minus placebo, ITT Population): 0.118
- Odds Ratio (adjusted) (Week 1, 3 mg vs placebo, ITT Population-Excluding Duplicate Patients): 0.477
- Odds Ratio (adjusted) (Week 1, 3 mg vs placebo, ITT Population): 0.488
- Difference in Proportions (adjusted) (Week 1, 6 mg minus placebo, ITT Population-Excluding Duplicate Patients): 0.102
- Difference in Proportions (adjusted) (Week 1, 6 mg minus placebo, ITT Population): 0.099
- Odds Ratio (adjusted) (Week 1, 6 mg vs placebo, ITT Population-Excluding Duplicate Patients): 0.533
- Odds Ratio (adjusted) (Week 1, 6 mg vs placebo, ITT Population): 0.539
- CSBM Weekly Responders, n (%) [19]: 235 (26.8) n (%)
- Non-Responders, n (%) [19]: 642 (73.2) n (%)
- CSBM Weekly Responders, n (%) [20]: 235 (26.3) n (%)
- Non-Responders, n (%) [20]: 657 (73.7) n (%)
- Difference in Proportions (adjusted) (Week 2, 3 mg minus placebo, All Randomized (includes Duplicate Patients)): 0.089
- Odds Ratio (adjusted) (Week 2, 3 mg vs placebo, All Randomized (includes Duplicate Patients)): 0.582
- CSBM Weekly Responders, n (%) (Week 2, 3 mg, All Randomized (includes Duplicate Patients)): 120 (25.5) n (%)
- CSBM Weekly Responders, n (%) (Week 2, 3 mg, ITT Population): 112 (25.3) n (%)
- Non-Responders, n (%) (Week 2, 3 mg, ITT Population): 331 (74.7) n (%)
- CSBM Weekly Responders, n (%) [21]: 110 (25.3) n (%)
- Non-Responders, n (%) [21]: 324 (74.7) n (%)
